For test [1], the target named is recombinant HIV 1 RT K103N (Human immunodeficiency virus type 1 group M subtype B, UniProt P03366, K702N). The test is described as follows: RT inhibition assay for non-nucleoside inhibitors (modified HS Lenti RT assay, RT Reaction mixture). Type of test: biochemical. To be noted: 1.7 fg/well, 19 hours, read-out: IC50 of indicated inhibitor in RT assay. From the text: (§1) As template for the mutations was used the pETRT expression vector, which was constructed from the BH10 isolate.

The target of test [2] is recombinant HIV 1 RT L100I/K103N (Human immunodeficiency virus type 1 group M subtype B, UniProt P03366, K702N/L699I). Described as above. The settings on record: 1.7 fg/well, 19 hours, read-out: IC50 of indicated inhibitor in RT assay. Type of test: biochemical.
From the text: as §1

Test [3] addresses recombinant HIV 1 RT wild type BH10 (Human immunodeficiency virus type 1 group M subtype B, UniProt P03366). The description is as above. Type of test: biochemical. The settings on record: 1.7 fg/well, 19 hours, read-out: IC50 of indicated inhibitor in RT assay.
From the text: as §1

Test [4] has as its target recombinant HIV 1 RT L100I (Human immunodeficiency virus type 1 group M subtype B, UniProt P03366, L699I). The test is described as above. The settings on record: 1.7 fg/well, 19 hours, read-out: IC50 of indicated inhibitor in RT assay. Type of test: biochemical.
From the text: as §1

Test [5] has as its target HIV RT recovered from patient plasma (Human immunodeficiency virus type 1, UniProt P03366). Put plainly: Susceptibility to NNRTIs using plasma derived RTs. Type of test: biochemical, HIV-1. The settings on record: 1.7 fg/well. An excerpt: Place them in a Nalgene box.
Suck the gels dry after each wash. […] Refit the upper part of the device.

pIC50: −log10 of the molar value. A value given as a limit tells only on which side of the number the result lay.

Regarding `CC(C)Nc1cccnc1N1CCN(C(=O)c2cc3cc(NS(C)(=O)=O)ccc3[nH]2)CC1` [Delaviridine, 1-(5-methanesulphonamido-1H-indol-2-yl-carbonyl)-4-[3-(1-methylethyl-amino)pyridinyl]piperazine monomethane sulphonate], the pIC50 in test [1] was 5.52; in test [2], less than 4.00; in test [3], 6.30; in test [4], 5.02; in test [5] (IC50, plasma RT of patient code 1177), 5.34; in test [5] (IC50, plasma RT of patient code 1412) it was 5.44. Besides, the pIC50 in test [5] (IC50, plasma RT of patient code 1424) was 5.09; in test [5] (IC50, plasma RT of patient code 1572), 5.02; in test [5] (IC50, plasma RT of patient code 1639) it was 4.90; in test [5] (IC50, plasma RT of patient code 1885) it was 5.05; in test [5] (plasma RT of patient code 3980 (V179T/A/I)), 5.12.

A word on the pIC50: it is the negative decadic logarithm of the IC50, by convention in mol/L.

Values taken from patent publication US7875422B2, “Viral drug susceptibility testing” (Cavidi AB, priority 2001, dated 2011).
